Test results from publication PMC7333345, “nanoDSF: In vitro Label-Free Method to Monitor Picornavirus Uncoating and Test Compounds Affecting Particle Stability” (Frontiers in Microbiology, 2020).

Biological target: T1, RV-A2 (native virion capsid; VP1 hydrophobic pocket) (rhinovirus A2, UniProt P04936)
T1 construct: native purified virion (propagated virus, monolithic chromatography); 60 copies each of VP1-VP4 cut from the genome polyprotein; VP4 68 aa; with Capsid protein VP2; Capsid protein VP3; Capsid protein VP4
T1 sequence (P04936 2-850): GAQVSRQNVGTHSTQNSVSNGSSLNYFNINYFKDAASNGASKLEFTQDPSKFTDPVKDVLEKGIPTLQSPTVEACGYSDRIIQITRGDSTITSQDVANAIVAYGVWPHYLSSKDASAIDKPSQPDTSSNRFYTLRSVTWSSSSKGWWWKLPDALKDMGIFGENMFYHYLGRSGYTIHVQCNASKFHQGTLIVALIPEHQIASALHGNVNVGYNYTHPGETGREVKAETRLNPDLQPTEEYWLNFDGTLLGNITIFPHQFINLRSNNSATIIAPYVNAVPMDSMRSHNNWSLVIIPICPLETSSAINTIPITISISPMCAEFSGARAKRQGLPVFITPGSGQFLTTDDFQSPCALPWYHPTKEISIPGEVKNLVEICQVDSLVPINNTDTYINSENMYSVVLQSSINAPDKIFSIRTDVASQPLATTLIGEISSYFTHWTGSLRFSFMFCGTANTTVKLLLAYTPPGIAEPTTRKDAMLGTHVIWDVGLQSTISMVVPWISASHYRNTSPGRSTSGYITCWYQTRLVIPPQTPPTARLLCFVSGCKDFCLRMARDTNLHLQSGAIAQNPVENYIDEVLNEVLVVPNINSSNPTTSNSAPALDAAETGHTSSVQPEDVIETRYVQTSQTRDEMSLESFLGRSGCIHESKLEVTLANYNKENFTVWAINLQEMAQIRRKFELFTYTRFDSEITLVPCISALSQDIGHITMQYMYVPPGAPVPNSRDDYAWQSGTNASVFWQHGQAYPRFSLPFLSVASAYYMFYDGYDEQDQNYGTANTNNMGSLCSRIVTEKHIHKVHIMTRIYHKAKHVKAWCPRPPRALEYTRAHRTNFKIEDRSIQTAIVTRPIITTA
Test: nanoDSF (intrinsic tryptophan fluorescence, Em350/Em330 ratio)
Assay type: binding
Details: 1 mM pleconaril, 2% DMSO, PBS, 1 °C/min, RV-A2 0.5 mg/ml (1 mg/ml in Figure 3 legend), whole virion, against DMSO control

Structure (SMILES): Cc1cc(CCCOc2c(C)cc(-c3noc(C(F)(F)F)n3)cc2C)on1 [pleconaril]
- shift of TA (50% N to A particle conversion): 5 °C
